Measurements taken from patent US11365204B2, “Substituted dihydrothienopyrimidines and their use as phosphodiesterase inhibitors” (UNION therapeutics A/S, priority 2017, dated 2022).

What was measured:
[1] = test system: Human peripheral blood mononuclear cells (PBMC); experiment: TNF-α release from LPS-stimulated PBMC; format: cell-based; details: Lipopolysaccharide 1 microg/ml, 18 hours, AlphaLISA, read-out: TNF-α IC50 range
Description: Human peripheral blood mononuclear cells (PBMC) were isolated from fresh buffy coats by density centrifugation using lymphoprep tubes (Medinor). Frozen PBMC's were washed in serum free assay buffer (RPMI1640 with 25 mM HEPES, 1% pen/strep, […] L glutamine, 0.5% human serum albumin) and living cells counted. Lipopolysaccharide (1 microg/ml; SIGMA) was added to the cells which were then transferred to 384 well tissue culture plates ([…]) containing titrated test compounds. The cells were incubated for 18 hours at 37° C. in serum free assay buffer and the level of TNFalpha in the supernatant was quantitated by AlphaLISA (PerkinElmer) by measuring fluorescence intensity at 615 nm.
Results were expressed as IC50 values calculated from inhibition curves using as controls the secretion in LPS stimulated wells and the secretion in cells incubated with 10 microM of a PDE4 inhibitor reference compound.

[2] = molecular target: human PDE4D catalytic domain (UniProt no. Q08499 [S380-L740]) (Homo sapiens (Human), UniProt Q08499); experiment: PDE4 assay (TR-FRET, cAMP hydrolysis); format: biochemical; details: read-out: PDE4 IC50 range
human PDE4D catalytic domain, sequence (Q08499 380-740): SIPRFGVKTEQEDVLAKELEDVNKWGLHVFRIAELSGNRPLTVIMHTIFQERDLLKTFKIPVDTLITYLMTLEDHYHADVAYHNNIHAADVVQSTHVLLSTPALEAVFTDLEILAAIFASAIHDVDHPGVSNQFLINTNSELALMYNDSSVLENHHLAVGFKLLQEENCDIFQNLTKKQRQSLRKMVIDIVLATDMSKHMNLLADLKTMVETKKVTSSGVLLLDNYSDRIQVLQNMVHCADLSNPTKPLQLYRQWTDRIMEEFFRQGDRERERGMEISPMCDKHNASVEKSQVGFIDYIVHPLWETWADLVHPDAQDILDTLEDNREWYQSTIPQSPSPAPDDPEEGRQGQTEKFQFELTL
Description: The human PDE4D catalytic domain (UniProt no. Q08499 [S380-L740]) was incubated with a mixture of non-labelled cAMP (cyclic adenosine monophosphate) and fluorescein amidite (FAM) conjugated cAMP and titrated test or reference compound.
Following brief incubation the enzymatic reaction was stopped by addition of binding buffer containing nanoparticles with immobilized trivalent metal ions capable of binding 1) AMP phospho groups and 2) terbium (Tb) donor fluorophores. Subsequent excitation of the Tb donor triggered time-resolved FRET to adjacent FAM acceptor molecules resulting in light emission. In the presence of a PDE4 inhibitor, AMP generation was reduced resulting in a lower fluorescence signal. The cAMP phosphodiester is not bound by the detection system.
Results were expressed as IC50 values (nM) calculated from inhibition curves where the TR-FRET signal was normalized to Tb fluorescence intensity and the negative (DMSO vehicle) and positive (10 microM a PDE4 inhibitor reference compound) controls.

Row | Structure (SMILES) | IC50 [1] | IC50 [2]
1 | O=C(OC1CN(c2nc3c(c(NC4CC5(COC5)C4)n2)[S+]([O-])CC3)C1)c1cnsc1 (racemic) [Example 65, [1-[4-(6-oxaspiro[3.3]-heptan-2-ylamino)-5-oxido-6,7-dihydrothieno-[3,2-d]pyrimidin-5-ium-2-yl]azetidin-3-yl] isothia-zole-4-carboxylate] | < 0.1 µM | < 0.1 µM
2 | O=C(OC1CN(c2nc3c(c(NC4CC5(COC5)C4)n2)[S@@+]([O-])CC3)C1)c1cscn1 (single isomer, unassigned) [Example 70] | < 0.1 µM | < 0.1 µM
3 | O=C(OC1CN(c2nc3c(c(NC4CC5(COC5)C4)n2)[S@+]([O-])CC3)C1)c1cscn1 (single isomer, unassigned) [Example 71] | > 0.5 µM | 0.1 to 0.5 µM
4 | CN(c1nc(N2CC(OC(=O)c3cnsc3)C2)nc2c1[S+]([O-])CC2)C1CCOCC1 (stereo in doubt) [Example 4, [1-[(5R)-4-[Methyl(tetrahydropyran-4-yl)amino]-5-oxido-6,7-dihydrothieno[3,2-d]pyrimidin-5-ium-2-yl]azetidin-3-yl] isothiazole-4-carboxylate] | < 0.1 µM | < 0.1 µM
5 | CN(c1nc(N2CC(OC(=O)c3cscn3)C2)nc2c1[S+]([O-])CC2)C1CCOCC1 (stereo in doubt) [Example 6, [1-[(5R)-4-[Methyl(tetrahydropyran-4-yl)amino]-5-oxido-6,7-dihydrothieno[3,2-d]pyrimidin-5-ium-2-yl]azetidin-3-yl] thiazole-4-carboxylate] | < 0.1 µM | < 0.1 µM
6 | O=C(OC1CN(c2nc3c(c(NC4CC5(COC5)C4)n2)[S+]([O-])CC3)C1)c1cnsc1 (stereo in doubt) [Example 68, [1-[(5R)-4-(6-oxaspiro-[3.3]heptan-2-ylamino)-5-oxido-6,7-dihydrothieno-[3,2-d]pyrimidin-5-ium-2-yl]azetidin-3-yl] isothia-zole-4-carboxylate] | < 0.1 µM | < 0.1 µM
7 | O=C(OC1CN(c2nc3c(c(NC4CC5(COC5)C4)n2)[S+]([O-])CC3)C1)c1cnsc1 (stereo in doubt) [Example 69, [1-[(5S)-4-(6-oxaspiro-[3.3]heptan-2-ylamino)-5-oxido-6,7-dihydrothieno-[3,2-d]pyrimidin-5-ium-2-yl]azetidin-3-yl] isothia-zole-4-carboxylate] | > 0.5 µM | 0.1 to 0.5 µM
8 | O=C(OC1CN(c2nc3c(c(NC4CCOCC4)n2)[S@@+]([O-])CC3)C1)c1cnsc1 [Example 1, [1-[(5R)-5-Oxido-4-(tetrahydropyran-4-ylamino)-6,7-dihydrothieno[3,2-d]pyrimidin-5-ium-2-yl]azetidin-3-yl] isothiazole-4-carboxylate] | < 0.1 µM | < 0.1 µM
9 | O=C(OC1CN(c2nc3c(c(NC4CCOCC4)n2)[S@@+]([O-])CC3)C1)c1cscn1 [Example 2, [1-[(5R)-5-Oxido-4-(tetrahydropyran-4-ylamino)-6,7-dihydrothieno[3,2-d]pyrimidin-5-ium-2-yl]azetidin-3-yl] thiazole-4-carboxylate] | < 0.1 µM | < 0.1 µM
10 | CN(c1nc(N2CC(OC(=O)c3cnsc3)C2)nc2c1[S+]([O-])CC2)C1CCOCC1 (centres unmarked) [Example 3, [1-[4-[Methyl(tetrahydropyran-4-yl)amino]-5-oxido-6,7-dihydrothieno[3,2-d]pyrimidin-5-ium-2-yl]azetidin-3-yl] isothiazole-4-carboxylate] | < 0.1 µM | < 0.1 µM
11 | CN(c1nc(N2CC(OC(=O)c3cscn3)C2)nc2c1[S+]([O-])CC2)C1CCOCC1 (centres unmarked) [Example 5, [1-[4-[Methyl(tetrahydropyran-4-yl)amino]-5-oxido-6,7-dihydrothieno[3,2-d]pyrimidin-5-ium-2-yl]azetidin-3-yl] thiazole-4-carboxylate] | < 0.1 µM | < 0.1 µM
12 | CCN(c1nc(N2CC(OC(=O)c3cnsc3)C2)nc2c1[S+]([O-])CC2)C1CCOCC1 (centres unmarked) [Example 7, [1-[4-[Ethyl(tetrahydropyran-4-yl)amino]-5-oxido-6,7-dihydrothieno[3,2-d]pyrimidin-5-ium-2-yl]azetidin-3-yl] isothiazole-4-carboxylate] | 0.1 to 0.5 µM | 0.1 to 0.5 µM
13 | CCN(c1nc(N2CC(OC(=O)c3cscn3)C2)nc2c1[S+]([O-])CC2)C1CCOCC1 (centres unmarked) [Example 8, [1-[4-[Ethyl(tetrahydropyran-4-yl)amino]-5-oxido-6,7-dihydrothieno[3,2-d]pyrimidin-5-ium-2-yl]azetidin-3-yl] thiazole-4-carboxylate] | 0.1 to 0.5 µM | 0.1 to 0.5 µM
14 | CCCN(c1nc(N2CC(OC(=O)c3cnsc3)C2)nc2c1[S+]([O-])CC2)C1CCOCC1 (centres unmarked) [Example 9, [1-[4-[Propyl(tetrahydropyran-4-yl)amino]-5-oxido-6,7-dihydrothieno[3,2-d]pyrimidin-5-ium-2-yl]azetidin-3-yl] isothiazole-4-carboxylate] | > 0.5 µM | > 0.5 µM
15 | CCCN(c1nc(N2CC(OC(=O)c3cscn3)C2)nc2c1[S+]([O-])CC2)C1CCOCC1 (centres unmarked) [Example 10, [1-[4-[Propyl(tetrahydropyran-4-yl)amino]-5-oxido-6,7-dihydrothieno[3,2-d]pyrimidin-5-ium-2-yl]azetidin-3-yl] thiazole-4-carboxylate] | > 0.5 µM | > 0.5 µM
16 | O=C(OC1CN(c2nc3c(c(NC4CCOCC4)n2)[S@@+]([O-])CC3)C1)C1CCCC1 [Example 11, [1-[(5R)-5-oxido-4-(tetrahydropyran-4-ylamino)-6,7-dihydro-thieno[3,2-d]pyrimidin-5-ium-2-yl]azetidin-3-yl] cyclopentanecarboxylate] | < 0.1 µM | < 0.1 µM
17 | O=C(OC1CN(c2nc3c(c(NC4CCOCC4)n2)[S@@+]([O-])CC3)C1)C1CCOCC1 [Example 12, [1-[(5R)-5-oxido-4-(tetrahydropyran-4-ylamino)-6,7-dihydrothieno[3,2-d]pyrimidin-5-ium-2-yl]azetidin-3-yl] tetrahydropyran-4-carboxylate] | < 0.1 µM | 0.1 to 0.5 µM
18 | COCCC(=O)OC1CN(c2nc3c(c(N(C)C4CCOCC4)n2)[S+]([O-])CC3)C1 (centres unmarked) [Example 13, [1-[4-[methyl(tetra-hydropyran-4-yl)amino]-5-oxido-6,7-dihydro-thieno[3,2-d]pyrimidin-5-ium-2-yl]azetidin-3-yl] 3-methoxypropanoate] | 0.1 to 0.5 µM | 0.1 to 0.5 µM
19 | CN(c1nc(N2CC(OC(=O)C3CC(O)C3)C2)nc2c1[S+]([O-])CC2)C1CCOCC1 (centres unmarked) [Example 14, [1-[4-[methyl(tetra-hydropyran-4-yl)amino]-5-oxido-6,7-dihydro-thieno[3,2-d]pyrimidin-5-ium-2-yl]azetidin-3-yl] 3-hydroxycyclobutane-carboxylate] | 0.1 to 0.5 µM | 0.1 to 0.5 µM
20 | CSCCC(=O)OC1CN(c2nc3c(c(N(C)C4CCOCC4)n2)[S+]([O-])CC3)C1 (centres unmarked) [Example 15, [1-[4-[methyl(tetra-hydropyran-4-yl)amino]-5-oxido-6,7-dihydro-thieno[3,2-d]pyrimidin-5-ium-2-yl]azetidin-3-yl] 3-methylsulfanyl-propanoate] | < 0.1 µM | < 0.1 µM
21 | CN(c1nc(N2CC(OC(=O)c3ccccc3)C2)nc2c1[S+]([O-])CC2)C1CCOCC1 (centres unmarked) [Example 16, [1-[4-[methyl(tetra-hydropyran-4-yl)amino]-5-oxido-6,7-dihydro-thieno[3,2-d]pyrimidin-5-ium-2-yl]azetidin-3-yl] benzoate] | < 0.1 µM | < 0.1 µM
22 | CN(c1nc(N2CC(OC(=O)c3ccn(C)n3)C2)nc2c1[S+]([O-])CC2)C1CCOCC1 (centres unmarked) [Example 17, [1-[4-[methyl(tetra-hydropyran-4-yl)amino]-5-oxido-6,7-dihydro-thieno[3,2-d]pyrimidin-5-ium-2-yl]azetidin-3-yl] 1-methylpyrazole-3-carboxylate] | < 0.1 µM | < 0.1 µM
23 | CN(c1nc(N2CC(OC(=O)c3cnn(C)c3)C2)nc2c1[S+]([O-])CC2)C1CCOCC1 (centres unmarked) [Example 18, [1-[4-[methyl(tetra-hydropyran-4-yl)amino]-5-oxido-6,7-dihydro-thieno[3,2-d]pyrimidin-5-ium-2-yl]azetidin-3-yl] 1-methylpyrazole-4-carboxylate] | < 0.1 µM | < 0.1 µM
24 | CN(c1nc(N2CC(OC(=O)c3cn(C)cn3)C2)nc2c1[S+]([O-])CC2)C1CCOCC1 (centres unmarked) [Example 19, [1-[4-[methyl(tetra-hydropyran-4-yl)amino]-5-oxido-6,7-dihydro-thieno[3,2-d]pyrimidin-5-ium-2-yl]azetidin-3-yl] 1-methylimidazole-4-carboxylate] | < 0.1 µM | < 0.1 µM
25 | Cc1nc(C(=O)OC2CN(c3nc4c(c(N(C)C5CCOCC5)n3)[S+]([O-])CC4)C2)co1 (centres unmarked) [Example 20, [1-[4-[methyl(tetra-hydropyran-4-yl)amino]-5-oxido-6,7-dihydro-thieno[3,2-d]pyrimidin-5-ium-2-yl]azetidin-3-yl] 2-methyloxazole-4-carboxylate] | < 0.1 µM | < 0.1 µM
